From patent US20040166148A1, “Transdermal therapeutic delivery systems with a butenolide” (priority 2003, published 2004)

Assay: Storage stability of drug solutions: N-oxide content by ion pair reversed phase HPLC
Type: physicochemical
Details: solutions stored for 7 days at 40° C.; formulation employing levulinic acid

## CC(=O)CCC(=O)O [levulinic acid]
  N-oxide content of the formulation: below 0.06%
